Experimental data taken from patent publication US9782411B2, “{4-[5-(3-chloro-phenoxy)-oxazolo[5,4-d]pyrimidin-2-yl]-2,6-dimethyl-phenoxy}-acetic acid for use in the prevention or treatment of acute kidney injury” (Sanofi, priority 2013, dated 2017).
Like-named read-outs stand apart in the source and are kept apart here.

What was measured:
RPTEC = assay: Tunicamycin-induced apoptosis assay in RPTEC (Caspase-Glo 3/7); type: cell-based; conditions: Homo sapiens, read-out: EC50 inhibition of tunicamycin-induced apoptosis (caspase 3/7 activity)
Description: The effect of compound A on tunicamycin (TN)-induced apoptosis in RPTEC was measured by the mean of the Caspase-Glo 3/7 assay kit (Promega). Briefly, RPTEC cells (Lonza) were seeded in 96 multiwell white plates at 30×10^3 cells per well in REGM (REBM medium plus 0.5% FCS plus Single quots, Lonza) and allowed to adhere for 24 h. After 24 h, complete medium was replaced by serum and supplements free medium (56 μL/well). Cells were pre-treated for 30 min by compound A (final concentrations 0.3-30 μM, 7 μL) followed by addition of tunicamycin (TN, final concentration, 0.1 μg/mL, 7 μL). After 24 hours at 37° C. 5% CO2, 70 μL of Caspase-Glo reagent were added and culture plate placed under shaking for 1 hour. Luminescence was recorded by the mean of the Envision reader (Perkin Elmer). Results are expressed as percent inhibition of TN-induced apoptosis.

S1P1 = S1P1 (Homo sapiens, UniProt P21453); assay: Impedance assay (CEREP), CHO; type: cell-based; design: host or cells: CHO (PathHunter); conditions: 10% FBS + 0.1% BSA
Sequence of S1P1 (P21453 whole entry): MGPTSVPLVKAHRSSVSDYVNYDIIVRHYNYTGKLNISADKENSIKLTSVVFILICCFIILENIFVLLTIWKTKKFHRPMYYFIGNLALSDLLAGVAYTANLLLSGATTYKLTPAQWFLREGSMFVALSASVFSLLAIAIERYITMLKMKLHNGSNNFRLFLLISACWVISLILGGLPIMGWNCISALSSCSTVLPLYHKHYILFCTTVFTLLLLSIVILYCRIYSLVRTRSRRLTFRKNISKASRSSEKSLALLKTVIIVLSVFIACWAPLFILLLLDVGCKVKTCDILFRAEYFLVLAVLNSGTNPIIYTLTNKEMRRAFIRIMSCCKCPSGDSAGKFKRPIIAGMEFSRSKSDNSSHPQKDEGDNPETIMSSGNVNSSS
Text: The Impedance Assay from CEREP was used to determine the EC50 activity of compound A, BAF-312 and fingolimod on S1P1.

CD1 mice = assay: Mouse model of rhabdomyolysis-induced renal injury (glycerol); type: in vivo; conditions: 10 mg/kg p.o. 1 hour before glycerol; 24 h
Description: Swiss (CD1) male mice (n=5-15, 13-14 weeks old) (Charles River Laboratory, France) received oral administration of compound A at 0.3, 1, 3 and 10 mg/kg or vehicle article (methylcellulose 0.6%—tween 80 0.5% in water) within a volume of administration of 10 mL/kg, one hour before glycerol injection. Intramuscular injection of glycerol (50% in PBS v/v) or vehicle article (PBS) was performed into hindlimbs (2 injections per leg, gastrocnemius and rectus femoris) at 8 mL/kg under pentobarbital (33 mg/kg) and ketamine (40 mg/kg) anaesthesia. Twenty-four hours later, blood was collected, centrifuged (3000 g, 10 min) and heparinised plasma frozen for creatinine evaluation using a biochemical analyser (P400, Horiba, France). Results are expressed as mean+/−s.e.m.

[1] = test system: isolated rabbit Purkinje fibers; assay: Rabbit Purkinje fibers assay
Description: The effects of compound A on resting membrane potential and action potential parameters recorded from isolated rabbit Purkinje fibers (male, New Zealand rabbits; 1.3 to 1.5 kg; 9-12 weeks of age) were evaluated through a microelectrode technique. […] The fibers were superfused with an oxygenated physiological solution containing (in mmol/L): NaCl, 120; KCl, 4; MgCl2, 1; NaH2PO4, 1.8; NaHCO3, 25; glucose, 11; CaCl2, 1.8; pH=7.4, at 36±1° C. Compound A was first dissolved into DMSO to obtain a 12 mmol/L stock solution. This solution was further diluted into DMSO and then added into the physiological solution to obtain the appropriate nominal concentrations of 0.3, 1, 3, 10 and 30 μmol/L (i.e., 0.1, 0.5, 1.4, 4.5 and 13.6 μg/mL of active ingredient, respectively). The final concentration of DMSO in the test formulation was kept constant at 0.25% (v/v) in the physiological solution. Purkinje fibers (n=4) were first superfused by the physiological solution. After a 30-minute control period, test compound was evaluated at increasing concentrations sequentially applied, every 30 minutes. For each tested concentration, the fibers were stimulated at the basal rate of 1 pulse per second (1 Hz). […]

[2] = Selectivity panels (CEREP panel, kinases, ion channel panel)
[3] = Pharmacokinetics in beagle dog; conditions: in vivo, po, 3 mg/kg p.o.
pERK and pAKt = assay: Akt and ERK1/2 phosphorylations in RPTEC cells; type: cell-based; conditions: Homo sapiens, read-out: EC50 induction of pERK and pAKt in RPTEC
Description: RPTEC cells (Lonza) were seeded at 0.3×10^6 cells per well in 6 multiwell plates in 2 mL per well complete REBM/REGM medium (Lonza) for 24 hours. Cells were starved […] for an additional 24 hour period in 900 μL quiescent medium. Increasing concentrations of compound A (10×) were added under the volume of 100 μL in each well for 10 minutes at 37° C. When used, tunicamycin (100 μL) was added 30 min prior to compound A addition. After medium removal, cells were rinsed with cold PBS and lysed on ice in 100 μL cold RIPA buffer containing 1% triton, proteases and phosphatases inhibitors. For western blotting, 30 μg of total protein lysate were loaded in 4-12% bis-tris gels (Invitrogen). Following migration and transfer, nitrocellulose membranes were probed with anti phospho-Akt (Phospho-Ser473, Cst #9271) and anti phospho-Erk1/2 (phopsho-Tyr202/Tyr204, Cst #4377). Tubuline labelling with anti α-Tubuline (Cst #2144) was used for normalization after densitometric analysis of the films.

[4] = test system: peripheral blood lymphocytes; assay: Mouse lymphopenia studies; type: in vivo; conditions: 3 and 10 mg/kg, mice
Description: Male C57BI6/J mice (n=8, 25-30 g) (Charles River Laboratory, France) received a single oral administration of compound A at 1, 3, 10 and 30 mg/kg or vehicle article (methylcellulose 0.6%—tween 80 0.5% in water) within a volume of administration of 10 mL/kg. Blood was collected at 2, 6 and 24 h following compound administration for haematology analysis to determine whole blood lymphocyte count. Results are expressed as mean+/−s.e.m.

With Cc1cc(-c2nc3cnc(Oc4cccc(Cl)c4)nc3o2)cc(C)c1OCC(=O)O [Compound A, {4-[5-(3-chloro-phenoxy)-oxazolo[5,4-d]pyrimidin-2-yl]-2,6-dimethyl-phenoxy}-acetic acid] the EC50 (RPTEC) was 3000 to 10000 nM, the EC50 (S1P1) was 65 nM and the “Prevention of deterioration of renal function (plasma creatinine)” value (CD1 mice) was about 85%. The “Effect on action potential” value ([1]; 26 μM) was “shortening of the action potential”, the “Effect on resting membrane potential and action potential parameters” value ([1]; 0.3 to 10 μM) was “no significant effect” and the Selectivity profile [2] was “attractive selectivity profile”. It also gave an AUC [3] of 41300 ng·h/mL, a Cmax [3] of 2910 ng/mL and an EC50 (pERK and pAKt; after tunicamycin injury) of about 10000 nM. The EC50 (pERK and pAKt; basal conditions) was about 3000 nM and the Lymphopenic activity [4] was “no lymphopenic activity”.
